Experimental data as given in patent US5047340A, “LAC+ saccharomyces cerevisiae” (The University of Kentucky Research Foundation, priority 1988, dated 1991).
Several values for one entry are separate records, joined by “and”; a condition that tells them apart may be missing. Equal entries are not always repeated.

How the values were obtained:
[1] = system: lactose transport in K. lactis MS425/pKR1B; test: Lactose transport ([14C]lactose uptake) in K. lactis; type: cell-based
Experimental: (§1) After warming the cells to 23° C. the competing compound was added to a final concentration of 50 mM. Thirty seconds later [^14 C] lactose was added to a final concentration of 1 mM and 100 μl samples were filtered 1 and 2 minutes later. […] For K. lactis the experiment was done twice and for S. cerevisiae it was done three times. Averaged values with or without a standard deviation are shown.
(§2) Finally, the lactose transport in LAC^+ S. cerevisiae was determined to be an energy-dependent process, as it is in K. lactis. To measure energy dependence, cells were pre-incubated for 20 minutes with 1 mM 2,4-dinitrophenol at ambient temperature.
(§3) The kinetics of lactose transport were measured to determine if Lac^+ S. cerevisiae transported measurable quantities of lactose and to determine the time scale over which the apparent initial velocity of transport could be measured. Lactose transport was measured using the following procedure. Saturated cultures of cells were obtained by growth at 30° C. in medium A: 10 g yeast extract, 20 g peptone, 100 ml of 20% lactic acid (titrated to pH 4.5 with solid sodium hydroxide) and 100 ml of 20% glycerol per liter, or medium B: 3.4 g yeast nitrogen base (Difco, without amino acids or ammonium sulfate), 10 g ammonium sulfate, 3 g 20 mg adenine, 20 mg uracil, 20 mg leucine, 20 mg histidine, 20 mg tryptophan, 20 mg methionine and 20 mg lysine per liter. Strain MS425/pKR1B of K. lactis was grown on medium A containing 10 μg G418/ml, while S. cerevisiae strains L1582/pKR1B, and YNN27/pKR1B were grown on the same medium containing 200 μg […] Strains L1582 or YNN27 transformed with either plasmid A, B, or C (autonomous or integrated) were grown on medium B.
(§4) This procedure is a modification of the procedure described by Serrano, R. (1977) European J. of Biochem. 80:97-10^2. To prepare cells for transport measurements, a saturated culture was diluted into fresh medium and grown from […]. Cells were harvested by filtration (45 mm dia, 0.45 μm Millipore type HA), washed four times with 10 ml of ice cold distilled water, and then resuspended in 100 mM tartaric acid (titrated to pH 4.2 with sodium hydroxide) at 60 to 100 A600 /ml. At this point cells could be stored at 4° C. for up to 24 hours without loss of transport activity.
(§5) To measure lactose transport, a sample of cells, 0.3 to 1.0 ml, was warmed to 23° C. for 2 min, lactose was added to the desired concentrations and at zero time 0.luCi of D-Glucose-[^14C ]lactose (CFA 278; 58 mCi/mM; Amersham Corp., Lexington, Mass.) was added per 0.3 ml of cells. At the indicated times 100 μl samples were filtered on 25 mm diameter Nuclepore filters (0.4μm pore size; Nuclepore Corp., Pleasanton, Cal.). The filter was washed twice with 5 ml of ice cold distilled water, dried and counted in 4 ml of a toluene-based cocktail containing 250 ml of triton X-100 and 6.5 g p-terphenyl per liter using a liquid scintillation counter. The specific activity, cpm/pmole of lactose, of each reaction was determined by counting a 10 μl sample. Data are expressed as pmoles of intracellular lactose per A600. Background transport was measured using cells that were heated for 3 min at 90° C. Typical background was 25 to 30 cpm.
The lactose transport in Lac^+ S. cerevisiae was determined to be an energy-dependent process, as it is in K. lactis. To measure energy dependence, cells were pre-incubated with 1 mM […] for 20 minutes at ambient temperature and then the uptake of 1 mM ^14 C-lactose was measured. Lactose transport was inhibited 91% both in the Lac^+ strain of S. cerevisiae , L1582/pKR1B-LAC4-1, and in the K. lactis strain MS425/pKR1B.

[2] = system: lactose transport in S. cerevisiae L1582/pKR1B-LAC4-1; test: Lactose transport ([14C]lactose uptake) in Lac+ S. cerevisiae; type: cell-based; conditions: for inhibition of lactose transport (stereospecificity, in words): summary of Table 1 (L1582/pKR1B-LAC4-1 and K. lactis)
Experimental: The rate of lactose transport as a function of substrate concentration is shown for two experiments using Lac^+ L1582/pKR1B-LAC4-1 (.smallcircle.--.smallcircle.) and Lac^+ L1582/pKR1B-LAC4-Δ1087(.quadrature.--.quadrature.). For each concentration of lactose, the rate of transport represented the average of samples taken at 30, 60, and 90 seconds.
as §1, §2, §3, §4, §5
The lactose transport in Lac^+ S. cerevisiae was determined to be an energy-dependent process, as it is in K. lactis. To measure energy dependence, cells were pre-incubated with 1 mM […] for 20 minutes at ambient temperature and then the uptake of 1 mM ^14 C-lactose was measured. […]

[3] = Kluyveromyces lactis, competing compound 50 mM, [14C]lactose 1 mM, 23° C., samples at 1 and 2 minutes, average of two experiments
[4] = Saccharomyces cerevisiae, competing compound 50 mM, [14C]lactose 1 mM, 23° C., samples at 1 and 2 minutes, average of three experiments with standard deviation
[5] = pre-incubated 20 minutes with 1 mM at ambient temperature

`OC[C@H]1O[C@@H](O[C@H]2[C@H](O)[C@@H](O)C(O)O[C@@H]2CO)[C@H](O)[C@@H](O)[C@H]1O` (stereo partly drawn) [lactose, 4-0-beta-D-galactosyl-D-glucose] was tested, and the Km ([1]; K. lactis strain MS425, read-out: apparent Km for lactose transport, K. lactis strain MS425) was 670 µM and the Km ([2]; two experiments of FIG. 4: Lac+ L1582/pKR1B-LAC4-1 and Lac+ L1582/pKR1B-LAC4-Δ1087, rates averaged from 30, 60 and 90 seconds, read-out: apparent Km for lactose transport, Lac+ S. cerevisiae) was 970 µM and 1090 µM.
`O=[N+]([O-])c1ccc(O[C@H]2O[C@H](CO)[C@H](O)[C@H](O)[C@H]2O)cc1` [4-nitrophenyl-α-D-galactoside] was tested, and the “inhibition of lactose transport (stereospecificity, in words)” value (shortened to “inhibition … (stereospecificity, in words)”) [2] was “inhibited only weakly”.
For `OC[C@H]1O[C@H](OC[C@H]2OC(O)[C@H](O)[C@@H](O)[C@@H]2O)[C@H](O)[C@@H](O)[C@H]1O` (stereo partly drawn) [6-0-α-D-galactosyl-D-glucose], the inhibition at 50000 µM [1, 3] was 10%, the inhibition at 50000 µM [2, 4] was 10.7 ± 8% and the “inhibition … (stereospecificity, in words)” value [2] was “inhibited only weakly”.
With `OC[C@H]1O[C@@H](S[C@@H]2O[C@H](CO)[C@H](O)[C@H](O)[C@H]2O)[C@H](O)[C@@H](O)[C@H]1O` [D-galactosyl-1-thio-β-D-galactoside] the inhibition at 50000 µM [1, 3] was 28%, the inhibition at 50000 µM [2, 4] was 4.9 ± 4% and the “inhibition … (stereospecificity, in words)” value [2] was “only moderate inhibition”.
`O=C[C@H](O)[C@@H](O)[C@@H](O)[C@H](O)CO` [D-galactose] was tested, and the inhibition at 50000 µM [1, 3] was 26%, the inhibition at 50000 µM [2, 4] was 24.3 ± 7.2% and the “inhibition … (stereospecificity, in words)” value [2] was “only moderate inhibition”.
`O=C[C@@H](O)[C@H](O[C@@H]1O[C@H](CO)[C@H](O)[C@H](O)[C@H]1O)[C@H](O)CO` [3-0-β-D-galactosyl-D-arabinose] was tested, and the “% Inhibition of Lactose Transport, K. lactis MS425/pKR1B” value ([1]; competing compound 50 mM, [14C]lactose 1 mM, 23° C., samples at 1 and 2 minutes, average of two experiments) was 93%, the “% Inhibition of Lactose Transport, S. cerevisiae L1582/pKR1B-LAC4-1” value ([2]; competing compound 50 mM, [14C]lactose 1 mM, 23° C., samples at 1 and 2 minutes, average of three experiments with standard deviation) was 90 ± 6% and the “inhibition … (stereospecificity, in words)” value [2] was “strongest inhibition”.
In the case of `O=[N+]([O-])c1ccc(O)c([N+](=O)[O-])c1` [2,4-dinitrophenol], the inhibition at 1000 µM ([1]; Kluyveromyces lactis, read-out: Lactose transport inhibited (energy dependence), K. lactis MS425/pKR1B) is reported as 91%, the “Lactose transport inhibition in words (energy dependence), K. lactis MS425/pKR1B” value [1, 5] is reported as “inhibited almost completely” and the inhibition at 1000 µM ([2]; Saccharomyces cerevisiae, read-out: Lactose transport inhibited (energy dependence), S. cerevisiae L1582/pKR1B-LAC4-1) is reported as 91%. For the same compound, the “Lactose transport inhibition in words (energy dependence), S. cerevisiae L1582/pKR1B-LAC4-1” value [2, 5] was “inhibited almost completely”.
